According to patent US20250270180A1, “MEK INHIBITORS AND THERAPEUTIC USES THEREOF” (Immuneering Corporation, priority 2020, published 2025):

How the values were obtained:
in vitro = conditions: human, Caco-2
CYP450 2D6 = CYP450 2D6 (Homo sapiens, UniProt P10635)
A549 (KRAS-G12S) pERK = assay: Cell-based pERK dose response study, A549; conditions: Homo sapiens; A549; 12-point dose; 2 hours
Protocol: Materials and Methods: A549 or A375 cells were seeded in 6-well plates at an appropriate seeding density on day 0. On day 2 or 3, after checking the health and confluency of cells, the media was aspirated and replaced with 1 mL media containing a predetermined concentration of compound and incubated for 2 hours. After 2 hours, the media was aspirated, and the cells washed 2 times with cold PBS. Cells were lysed on ice, with 50 uL 1×CST lysis buffer+1 mM PMSF for 5 minutes. After 5 minutes, cells were removed using a scraper and transferred to cold 1.5 mL tubes, and centrifuged for 10 min, 4° C., 14,000×g. Supernatant was gently removed and snap frozen in liquid nitrogen. Protein concentration of the lysate was determined using Bradford Reagent (analyzed using SpectraMax M2E) and diluted to 1 mg/mL or pERK or 1.5 mg/mL for pMEK analysis. […] All dilutions were in Milk-free antibody diluent.

A549 pMEK:tMEK (CRAF) = assay: CRAF-bypass pMEK:tMEK, A549; type: cell-based
Protocol: Materials and Methods: A549 or A375 cells were seeded in 6-well plates at an appropriate seeding density on day 0. On day 2 or 3, after checking the health and confluency of cells, the media was aspirated and replaced with 1 mL media containing a predetermined concentration of compound and incubated for 2 hours. After 2 hours, the media was aspirated, and the cells washed 2 times with cold PBS. Cells were lysed on ice, with 50 uL 1×CST lysis buffer+1 mM PMSF for 5 minutes. After 5 minutes, cells were removed using a scraper and transferred to cold 1.5 mL tubes, and centrifuged for 10 min, 4° C., 14,000×g. Supernatant was gently removed and snap frozen in liquid nitrogen. Protein concentration of the lysate was determined using Bradford Reagent (analyzed using SpectraMax M2E) and diluted to 1 mg/mL or pERK or 1.5 mg/mL for pMEK analysis. Cell lysates were then analyzed for phosphor-ERK/total-ERK levels on a Jess system (ProteinSimple; Cat #JS3346) using the following antibodies: tERK1/2 (CST 4696; 1:50) and pERK1/2 (CST 4377; 1:50). […]
A549 or […] cells were treated in duplicate for two hours with compounds at varying concentrations. […] After storage, the lysate was quantified with the Bradford assay. Before the lysates were prepared to run on the Jess, the lysates were diluted to 1 mg/mL for pERK analysis and 1.5 mg/mL pMEK analysis using quantitative Western blotting. […]

[1] = Mouse liver microsome stability (t1/2, Clint); type: in vitro ADME; conditions: liver microsomes, pH 7.4, 0.5 mg/ml microsomal protein
Protocol: (Eppendorf 5804R). […] The disappearance of the parent compound was determined.

[2] = Human liver microsome stability (t1/2, Clint); type: in vitro ADME; conditions: microsomes, pH 7.4, 0.5 mg/ml microsomal protein
[3] = Kinetic solubility (PBS pH 7.4; 4 hr); type: physicochemical; conditions: 10 mM PBS buffer, aqueous buffer, kinetic from dmso stock
Protocol: The plates were shaken for 4 h at room temperature in an Eppendorf Thermomixer. After incubation, the plates were centrifuged for 20 minutes at 4680 rpm. From the supernatant, 150 uL was transferred to a new 96 well plate and 50 uL DMSO was added to ensure continued dissolution. Samples were measured on LC-UV at injection volumes of 1 and 8 uL. Peak areas were determined and compared to peak areas obtained using calibration curves of the test compounds in DMSO.

[4] = eLogD (lipophilicity; pH 7.4); type: physicochemical
Protocol: Test compounds were dissolved in DMSO at a concentration of 10 mM and further diluted with methanol: water 1:1. Samples were analyzed using gradient HPLC with three different isocratic mobile phases of 0.25% octanol in methanol (60, 65 and 70%) and 20 mM MOPS buffer (pH 7.4) with decylamine. If needed, (for low ElogDoct compounds) the isocratic mobile phases were adjusted to e.g. 40, 45 and 50% methanol. Peaks were detected using a diode array at absorbance 220-320 nm.
Capacity factors data (k′ _=(tr−_t0)/t0) obtained at various amounts of methanol were extrapolated to 0% methanol and k′w values are determined using a linear procedure. ElogDoct (7.4) is calculated using a series of reference standards with known Log D values. Each experiment was performed in triplicate.

PAMPA (pH 7.4) = conditions: PAMPA
Protocol: Each stock solution was diluted to 50 uM in pH 7.4 Prisma HT buffer (pION) and 200 ul was added to each well of the donor plate in triplicate. The polyvinylidene fluoride (PVDF, 0.45 μm) filter membrane on the acceptor plate was coated with 5 ul gastrointestinal tract lipid formulation (GIT-0, pION) and to each well of the acceptor plate, 200 μl of acceptor sink buffer (pION) was added. The acceptor filter plate was then carefully placed on top of the donor plate to form a sandwich. The sandwich was incubated at 25° C. for 4 h without stirring. UV-vis spectra of the solutions in the blank, reference, acceptor and donor plates were measured using a microplate reader (Tecan Infinite 200PRO M Nano Plus). Permeability values were calculated using the PAMPA explorer software v. 3.8.0.2 (pION).

[5] = Single dose PK profile (plasma and tumor) in Colon26 tumor bearing mice; type: in vivo; conditions: female, mouse
Protocol: Female mice (either athymic BALC/c nude, or BALB/c mice) were inoculated with a single subcutaneous injection of 0.1 ml of mouse Colon-26 cell suspension (1×10^5 cells per animal) in the right flank region. Colon26 (C26) tumor bearing mice received a single dose (3-4 mice/treatment) of vehicle (10% DMSO/90% [20% SBE-B-CD in saline], pH 5) containing compounds at indicated dose by gavage (p.o.) or intravenous administration (i.v.) and at various time points (0.16, 0.5, 1, 2, 4, 8, 12, 16, 24-hour) post dose humanely euthanized. Blood was obtained through cardiac puncture into K+EDTA tubes, mixed by inversion and centrifuged to obtain the plasma. Tissues were excised, cleaned of surrounding tissues. All samples immediately snap frozen in liquid N2 prior to LC-MS/MS analysis (using Agilent Poroshell-120 EC-C18 (4.0 μm) 2.1×50 mm, and a Water+API-4000 Electrospray MS unit). The results of this study are illustrated in FIGS. 16, and 17. Tables 11 describes a single does PK profile (plasma) and Table 12 describes a single dose PK profile (tumor).

[6] = Inv New Drugs (2018) 36, 1037-1043; cited from earlier work
[7] = athymic BALB/c nude or BALB/c, iv, 25 mg/kg, plasma, 25 mpk i.v.
[8] = athymic BALB/c nude or BALB/c, po, 25 mg/kg, plasma, 25 mpk p.o.
[9] = athymic BALB/c nude or BALB/c, po, 100 mg/kg, plasma, 100 mpk p.o.
[10] = iv, 25 mg/kg, plasma, 25 mpk i.v.
[11] = iv, 25 mg/kg, tumor, 25 mpk i.v.
[12] = po, 25 mg/kg, plasma, 25 mpk p.o.
[13] = po, 25 mg/kg, tumor, 25 mpk p.o.
[14] = po, 100 mg/kg, plasma, 100 mpk p.o.
[15] = po, 100 mg/kg, tumor, 100 mpk p.o.

CYP450 2D6, sequence (P10635 whole entry): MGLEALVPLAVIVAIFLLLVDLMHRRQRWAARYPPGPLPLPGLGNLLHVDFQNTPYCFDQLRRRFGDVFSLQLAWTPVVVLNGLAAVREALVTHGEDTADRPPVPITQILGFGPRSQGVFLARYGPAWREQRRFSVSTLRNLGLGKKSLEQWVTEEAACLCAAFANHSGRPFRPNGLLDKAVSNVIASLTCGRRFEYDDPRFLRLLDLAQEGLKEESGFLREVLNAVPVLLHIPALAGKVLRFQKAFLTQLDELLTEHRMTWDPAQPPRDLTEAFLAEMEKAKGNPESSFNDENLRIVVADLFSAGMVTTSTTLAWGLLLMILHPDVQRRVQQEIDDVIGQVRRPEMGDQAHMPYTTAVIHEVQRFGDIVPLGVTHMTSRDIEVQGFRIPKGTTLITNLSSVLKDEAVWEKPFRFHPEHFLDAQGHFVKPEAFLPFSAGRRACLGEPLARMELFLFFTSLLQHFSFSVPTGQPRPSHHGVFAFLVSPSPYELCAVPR

SMILES: CC(=O)CC(c1ccccc1)c1c(O)c2ccccc2oc1=O (centres unmarked) [Warfarin]
- Papp A→B at 2 h, 10 μM (in vitro): > 1 ×10⁻⁶ cm/s

SMILES: C=C[C@H]1C[N@@]2CC[C@H]1C[C@@H]2[C@@H](O)c1ccnc2ccc(OC)cc12 [Quinidine]
- 2D6* (CYP450 2D6): 99.7

SMILES: CNS(=O)(=O)Nc1cccc(Cc2c(CN3CCC3)c3ccc(OC(=O)N(C)C)cc3oc2=O)c1F [Compound 197]
- IC50 (A549 (KRAS-G12S) pERK): 4.3 nM
- CRAF A549 pMEK:tMEK [100 nM; 2 hr] (A549 pMEK:tMEK (CRAF)): 0.49
- half-life at 1 uM [1]: 53 min
- microsomal CLint at 1 uM [1]: 26 µL/min/mg
- half-life at 1 uM [2]: 38 min
- solubility kinetic at 4 h [3]: > 80 µM
- chromatographic logD [4]: 2.9
- Papp at 4 h, 50 uM (PAMPA (pH 7.4)): 51 ×10⁻⁶ cm/s
- Tmax [5, 7]: 9.6 min
- half-life [5, 7]: 143 min
- bioavailability [5, 8]: 47%
- half-life [5, 8]: 73.8 min
- bioavailability [5, 9]: 100%
- half-life [5, 9]: 82.8 min
- AUC(0-inf) [5, 10]: 7740 ng·h/mL
- AUC(0-t) [5, 10]: 7730 ng·h/mL
- Cmax [5, 10]: 10900 ng/mL
- AUC(0-inf) [5, 11]: 8360 ng·h/mL
- AUC(0-t) [5, 11]: 8320 ng·h/mL
- Cmax [5, 11]: 6750 ng/mL
- Tmax [5, 11]: 30 min
- AUC(0-inf) [5, 12]: 3650 ng·h/mL
- AUC(0-t) [5, 12]: 3640 ng·h/mL
- Cmax [5, 12]: 2320 ng/mL
- Tmax [5, 12]: 30 min
- AUC(0-t) [5, 13]: 3460 ng·h/mL
- Cmax [5, 13]: 1920 ng/mL
- Tmax [5, 13]: 60 min
- bioavailability [5, 13]: 42%
- AUC(0-inf) [5, 14]: 31100 ng·h/mL
- AUC(0-t) [5, 14]: 31100 ng·h/mL
- Cmax [5, 14]: 14200 ng/mL
- Tmax [5, 14]: 9.6 min
- AUC(0-inf) [5, 15]: 37100 ng·h/mL
- AUC(0-t) [5, 15]: 36900 ng·h/mL
- Cmax [5, 15]: 12600 ng/mL
- Tmax [5, 15]: 60 min
- bioavailability [5, 15]: 111%

SMILES: Cn1cnc2c(F)c(Nc3ccc(Br)cc3F)c(C(=O)NOCCO)cc21 [binimetinib]
- muscle gain in patients with BTC [6]: promote muscle gain
